The subject of the test is HBV. The test is described as follows: HBV-DNA Antiviral Assay Using HepG2.2.15 Cells (extracellular HBV DNA by qPCR). Type of test: cell-based, hepatitis B virus (HBV). As to the method: The following assay procedure describes the HBV antiviral assay. This assay uses HepG2.2.15 cells, which have been transfected with HBV genome, and extracellular HBV DNA quantification as endpoint. Cell viability is assessed in parallel by measuring the intracellular ATP content using the CellTiter-Glo® reagent from Promega.
On day 0, HepG2.2.15 cells were seeded in 96-well plates at a density of 6.0×10^4 cells/well (0.1 mL/well). The cells were incubated at 37° C. and 5% CO2.
On day 1, the test articles were diluted and added to cell culture wells (8 concentrations, 4-fold dilution, in duplicate). GLS4, Tenofovir and Sorafenib were used as reference compounds. 100 μL of culture medium containing the compounds was added to the plate, and the final total volume per well was 200 μL. The final concentration of DMSO in the culture medium was 0.5%. The plate map of compound treatment is shown below. The cells were cultured at 37° C. and 5% CO2 for 3 days.
On day 4, the plates were refreshed with culture media with compounds.
On day 7, cell viability was assessed using the CellTiter-Glo®, and the cell culture supernatants were collected for determination of HBV DNA by qPCR.
Extracellular DNA was isolated with QIAamp 96 DNA Blood Kit per the manufacturer's manual. HBV DNA was then quantified by qPCR with HBV specific primers and probes as specified in Table 1 using the FastStart Universal MasterMix from Roche on an ABI-7900HT. The PCR cycle program consisted of 95° C. for 10 min, followed by 40 cycles at 95° C. for 15 sec and 60° C. for 1 min.
A DNA standard was prepared by dilution of the pAAV2 HBV1.3 plasmid with concentrations ranging from 10 to 1×10^7 copies/uL and used to generate a standard curve by plotting Ct value vs. the concentration of the HBV plasmid DNA standard. The quantity of HBV DNA in each sample was determined by interpolating from the standard curve.
Cell viability was calculated as follows: % Cell viability=(luminescence value of test sample−average luminescence value of blank)/(average luminescence value of 0.5% DMSO control−average luminescence of blank)×100%. HBV DNA inhibition was calculated as follows: 100−(HBV DNA copy number of test sample−HBV DNA copy number of ETV)/HBV DNA copy number of 0.5% DMSO control−HBV DNA copy number of ETV)×100%. The CC50, EC50 and EC90 values were determined by dose-response curves fitted by GraphPad Prism using “log (agonist) vs. response—Variable slope”.

[1] abbreviates: Hepatitis B virus, HBV DNA inhibition, HepG2.2.15 cells, extracellular HBV DNA by qPCR, read-out: EC50.

The source of these data is patent publication US12599582B2, “Pyrrole compounds” (ALIGOS THERAPEUTICS, INC., priority 2019, dated 2026).

Where two headings read alike, the source gives them in different places.

Usually EC50 stands for the concentration needed to bring the measured effect to its halfway point.

In the case of `Cc1c(C(=O)C(=O)NC2(c3ncc[nH]3)COC2)c(C)n(C)c1C(=O)Nc1ccc(F)c(C(F)(F)F)c1` [Compound 155, N-[4-fluoro-3-(trifluoromethyl)phenyl]-4-[2-[[3-(1H-imidazol-2-yl)oxetan-3-yl]amino]-2-oxo-acetyl]-1,3,5-trimethyl-pyrrole-2-carboxamide], the concentration giving a half-maximal response (EC50) under setting [1] lay in the range of 1 to 10 nM.

For `C#C[C@H](NC(=O)C(=O)c1c(C)c(C(=O)Nc2ccc(F)c(C#N)c2)n(C)c1C)C1CC1` [Compound 23a, N-(3-cyano-4-fluoro-phenyl)-1,3,5-trimethyl-4-[2-oxo-2-[[(1R)-1-cyclopropylprop-2-ynyl]amino]acetyl]pyrrole-2-carboxamide], under setting [1], the EC50 is less than 1 nM.

Consider `Cc1c(C(=O)C(=O)NC2(c3cnn(C4CC4)n3)CC(F)(F)C2)c(C)n(C)c1C(=O)Nc1ccc(F)c(C(F)(F)F)c1` [Compound 142, 4-[2-[[1-(2-cyclopropyltriazol-4-yl)-3,3-difluoro-cyclobutyl]amino]-2-oxo-acetyl]-N-[4-fluoro-3-(trifluoromethyl)phenyl]-1,3,5-trimethyl-pyrrole-2-carboxamide], for which the EC50 (HBV DNA inhibition, HepG2.2.15 cells, extracellular HBV DNA by qPCR, read-out: EC50) was 1 to 10 nM.

For `C#CC1(NC(=O)C(=O)c2c(C)c(C(=O)Nc3ccnc(Br)c3F)n(C)c2C)CC(F)(F)C1` [Compound 84, N-(2-bromo-3-fluoro-4-pyridyl)-4-[2-[(1-ethynyl-3,3-difluoro-cyclobutyl)amino]-2-oxo-acetyl]-1,3,5-trimethyl-pyrrole-2-carboxamide], under setting [1], the EC50 lay within 1 to 10 nM.

Turning to `C#CC1(NC(=O)C(=O)c2c(F)c(C(=O)Nc3ccc(F)c(C#N)c3)n(C)c2C)COC1` [Compound 55, N-(3-cyano-4-fluoro-phenyl)-4-[2-[(3-ethynyloxetan-3-yl)amino]-2-oxo-acetyl]-3-fluoro-1,5-dimethyl-pyrrole-2-carboxamide], the EC50 under setting [1] is less than 1 nM.

Turning to `Cc1c(C(=O)C(=O)NC(C)(C)c2ccc3[nH]cnc3c2)c(C)n(C)c1C(=O)Nc1ccc(F)c(C#N)c1` [Compound 160, 4-[2-[[1-(1H-benzimidazol-5-yl)-1-methyl-ethyl]amino]-2-oxo-acetyl]-N-(3-cyano-4-fluoro-phenyl)-1,3,5-trimethyl-pyrrole-2-carboxamide], the EC50 under setting [1] lay within 1 to 10 nM.

Take `C=CCNC(=O)C(=O)c1c(F)c(C(=O)Nc2ccc(F)c(C#N)c2)n(C)c1C` [Compound 18, 4-[2-(allylamino)-2-oxo-acetyl]-N-(3-cyano-4-fluoro-phenyl)-3-fluoro-1,5-dimethyl-pyrrole-2-carboxamide]: the EC50 under setting [1] is 1 to 10 nM.

`C#CC1(NC(=O)C(=O)c2c(C)c(C(=O)Nc3ccc(F)c(C#N)c3)n(C)c2C)COC1` [Compound 26, N-(3-cyano-4-fluorophenyl)-4-[[(3-ethynyloxetan-3-yl)carbamoyl]carbonyl]-1,3,5-trimethylpyrrole-2-carboxamide] registered an EC50 (Hepatitis B virus, HepG2.2.15) of less than 1 nM.

On to `Cc1c(C(=O)C(=O)NC(C)(C)c2cnn(C3CC3)c2)c(C)n(C)c1C(=O)Nc1ccc(F)c(C#N)c1` [Compound 135, N-(3-cyano-4-fluoro-phenyl)-4-[2-[[1-(1-cyclopropylpyrazol-4-yl)-1-methyl-ethyl]amino]-2-oxo-acetyl]-1,3,5-trimethyl-pyrrole-2-carboxamide], for which the EC50 under setting [1] lay within 1 to 10 nM.

Take `Cc1cc(NC(=O)c2c(C)c(C(=O)C(=O)NC(C)(C)c3ccc4[nH]cnc4c3)c(C)n2C)ccc1F` [Compound 162, 4-[2-[[1-(1H-benzimidazol-5-yl)-1-methyl-ethyl]amino]-2-oxo-acetyl]-N-(4-fluoro-3-methyl-phenyl)-1,3,5-trimethyl-pyrrole-2-carboxamide]: the concentration for a half-maximal effect (EC50) under setting [1] was in the range of 1 to 10 nM.

As for `C#CC(C)(C)NC(=O)C(=O)c1c(C)c(C(=O)Nc2ccc(F)c(F)c2)n(C)c1C` [Compound 90, N-(3,4-difluorophenyl)-4-[2-(1,1-dimethylprop-2-ynylamino)-2-oxo-acetyl]-1,3,5-trimethyl-pyrrole-2-carboxamide], under setting [1], the EC50 is 1 to 10 nM.
